Results on 22 compounds are retold here after patent US20240279214A1, “ALPHA4 BETA7 INEGRIN ANTAGONISTS AND USES THEREOF” (XinThera, Inc., priority 2022, published 2024).

For this data set the following is noted: 13-membered ring.

Read-outs that look alike come from different tables or passages of the source.

Regarding `CCOC(=O)C[C@@H]1NC(=O)C(n2cc(CCN3CC(F)C3)c(C(F)(F)F)cc2=O)c2cccc(c2)Oc2cccc(C(F)(F)F)c2-c2cc1c(F)c(C(F)(F)F)c2` (stereo partly shown), the ring closure, isolated yield (from CCOC(=O)C[C@H](NC(=O)C(c1cccc(Br)c1)n1cc(CCN2CC(F)C2)c(C(F)(F)F)cc1=O)c1cc(-c2c(O)cccc2C(F)(F)F)cc(C(F)(F)F)c1F, ether bond, CuI/N1,N2-dimethylcyclohexane-1,2-diamine/K2CO3, dioxane, 14.7 mM, 100.0 °C, 16.0 h) is 46.7%. `CCOC(=O)C[C@@H]1NC(=O)C(n2cc(CCN3CC(F)C3)c(C(F)(F)F)cc2=O)c2cc(ccc2Cl)Oc2cccc(C)c2-c2cc(C)c(F)c1c2` (stereo in doubt) gave a ring closure, isolated yield (from CCOC(=O)C[C@H](NC(=O)C(c1cc(Br)ccc1Cl)n1cc(CCN2CC(F)C2)c(C(F)(F)F)cc1=O)c1cc(-c2c(C)cccc2O)cc(C)c1F, ether bond, CuI/K2CO3/(1R,2R)-N1,N2-dimethylcyclohexane-1,2-diamine, 1,4-dioxane, 26.7 mM, 100.0 °C, 16.0 h) of 50.3%. Where the note is “from CCOC(=O)C[C@H](NC(=O)C(c1cc(Br)ccc1F)n1cc(CCN2CC(F)C2)c(C(F)(F)F)cc1=O)c1cc(-c2c(C)cccc2O)cc(C(F)F)c1F, ether bond, CuI/(1R,2R)-N1,N2-dimethylcyclohexane-1,2-diamine/K2CO3, 1,4-dioxane, 17.3 mM, 100.0 °C, 16.0 h”, `CCOC(=O)C[C@@H]1NC(=O)C(n2cc(CCN3CC(F)C3)c(C(F)(F)F)cc2=O)c2cc(ccc2F)Oc2cccc(C)c2-c2cc(C(F)F)c(F)c1c2` (stereo in doubt) showed a ring closure, isolated yield of 50.2%. Under “ether bond, CuI/K2CO3/(1R,2R)-N1,N2-dimethylcyclohexane-1,2-diamine, 1,4-dioxane, 33.3 mM, 100.0 °C”, “ethyl 2-[(14S,17S)-20-cyclopropyl-12,19-difluoro-3-methyl-15-oxo-14-[2-oxo-4-(trifluoromethyl) pyridin-1-yl]-8-oxa-16-azatetracyclo [16.3.1.1^{9,13}.0^{2,7}]tricosa-1(22),2(7),3,5,9,11,13(23),18,20-nonaen-17-yl]acetate” yielded a ring closure, isolated yield of 56.2%. Regarding `CCOC(=O)C[C@@H]1NC(=O)C(n2cc(CCN(C)C)c(C(F)(F)F)cc2=O)c2cccc(c2)Oc2cccc(C)c2-c2cc1c(F)c(C(F)(F)F)c2` (stereo in doubt), the ring closure, isolated yield (from CCOC(=O)C[C@H](NC(=O)C(c1cccc(Br)c1)n1cc(CCN(C)C)c(C(F)(F)F)cc1=O)c1cc(-c2c(C)cccc2O)cc(C(F)(F)F)c1F, ether bond, CuI/(1R,2R)-N1,N2-dimethylcyclohexane-1,2-diamine/K2CO3, dioxane, 68.3 mM, 100.0 °C, 16.0 h) is 55.5%. On to `CCOC(=O)C[C@@H]1NC(=O)C(n2cc(CCN3CC(F)C3)c(C(F)(F)F)cc2=O)c2cc(ccc2F)Oc2cccc(C)c2-c2cc(C)c(F)c1c2F` (stereo partly shown), for which the ring closure, isolated yield (from CCOC(=O)C[C@H](NC(=O)C(c1cc(Br)ccc1F)n1cc(CCN2CC(F)C2)c(C(F)(F)F)cc1=O)c1c(F)c(C)cc(-c2c(C)cccc2O)c1F, ether bond, CuI/K2CO3/(1R,2R)-N1,N2-dimethylcyclohexane-1,2-diamine, 1,4-dioxane, 48.0 mM, 100.0 °C) was 72%. For `CCOC(=O)C[C@@H]1NC(=O)C(n2cc(CCN3CC(F)C3)c(C(F)(F)F)cc2=O)c2cc(ccc2F)Oc2cccc(Cl)c2-c2cc(C)c(F)c1c2` (stereo in doubt), the ring closure, isolated yield (from CCOC(=O)C[C@H](NC(=O)C(c1cc(Br)ccc1F)n1cc(CCN2CC(F)C2)c(C(F)(F)F)cc1=O)c1cc(-c2c(O)cccc2Cl)cc(C)c1F, ether bond, CuI/(1R,2R)-N1,N2-dimethylcyclohexane-1,2-diamine, 1,4-dioxane, 70.0 mM, 100.0 °C, 16.0 h) came out at 49.7%. With `CCOC(=O)C[C@@H]1NC(=O)C(n2cc(CCN3CC(F)C3)c(C(F)(F)F)cc2=O)c2cccc(c2)Oc2cccc(Cl)c2-c2cc1c(F)c(C(F)(F)F)c2` (stereo partly shown), for the setting “from CCOC(=O)C[C@H](NC(=O)C(c1cccc(Br)c1)n1cc(CCN2CC(F)C2)c(C(F)(F)F)cc1=O)c1cc(-c2c(O)cccc2Cl)cc(C(F)(F)F)c1F, ether bond, CuI/N1,N2-dimethylcyclohexane-1,2-diamine/K2CO3, dioxane, 15.3 mM, 100.0 °C, 16.0 h”, the ring closure, isolated yield stood at 55.1%.

The compound `CCOC(=O)C[C@@H]1NC(=O)C(=O)c2cccc(c2)Cc2cccc(C)c2-c2cc(C)c(F)c1c2` had a ring closure, isolated yield (from CCOC(=O)C[C@H](N)c1cc(-c2c(C)cccc2Cc2cccc(C(=O)C(=O)O)c2)cc(C)c1F, amide bond, TCFH/NMI, MeCN, 139.3 mM, 25.0 °C, 3.0 h) of 32.5%. In turn, `CCOC(=O)C[C@@H]1NC(=O)C(n2c(=O)c3ccncc3n(C)c2=O)c2cc(ccc2F)Oc2cccc(C)c2-c2cc(C)c(F)c1c2` (stereo partly shown) displayed a ring closure, isolated yield (from CCOC(=O)C[C@H](NC(=O)C(c1cc(Br)ccc1F)n1c(=O)c2ccncc2n(C)c1=O)c1cc(-c2c(C)cccc2O)cc(C)c1F, ether bond, CuI/K2CO3/(1R,2R)-N1,N2-dimethylcyclohexane-1,2-diamine, 1,4-dioxane, 50.0 mM, 100.0 °C, 2.0 h) of 82.6%.

In turn, `CCOC(=O)C[C@@H]1NC(=O)C(n2cc(CCN(C)C)c(C(F)(F)F)cc2=O)c2cccc(c2)Oc2cccc(C)c2-c2cc(C)c(F)c1c2` (stereo in doubt) registered a ring closure, isolated yield (from CCOC(=O)C[C@H](NC(=O)C(c1cccc(Br)c1)n1cc(CCN(C)C)c(C(F)(F)F)cc1=O)c1cc(-c2c(C)cccc2O)cc(C)c1F, ether bond, CuI/K2CO3/(1R,2R)-N1,N2-dimethylcyclohexane-1,2-diamine, 1,4-dioxane, 66.7 mM, 100.0 °C, 16.0 h) of 61.3%. As to `CCOC(=O)C[C@@H]1NC(=O)C(n2cc(CCN3CC(F)(F)C3)c(C(F)(F)F)cc2=O)c2cc(ccc2F)Oc2cccc(C)c2-c2cc(C)c(F)c1c2` (stereo partly shown), for the setting “from CCOC(=O)C[C@H](NC(=O)C(c1cc(Br)ccc1F)n1cc(CCN2CC(F)(F)C2)c(C(F)(F)F)cc1=O)c1cc(-c2c(C)cccc2O)cc(C)c1F, ether bond, CuI/(1R,2R)-N1,N2-dimethylcyclohexane-1,2-diamine/K2CO3, 1,4-dioxane, 26.0 mM, 100.0 °C, 16.0 h”, the ring closure, isolated yield was determined as 50.3%. For `CCOC(=O)C[C@@H]1NC(=O)C(n2cc(CCN3CC(F)C3)c(C(F)(F)F)cc2=O)c2cccc(c2)Oc2cc(C(F)(F)F)cc(C)c2-c2cc1c(F)c(C(F)(F)F)c2` (stereo partly shown), the ring closure, isolated yield (from CCOC(=O)C[C@H](NC(=O)C(c1cccc(Br)c1)n1cc(CCN2CC(F)C2)c(C(F)(F)F)cc1=O)c1cc(-c2c(C)cc(C(F)(F)F)cc2O)cc(C(F)(F)F)c1F, ether bond, CuI/(1R,2R)-N1,N2-dimethylcyclohexane-1,2-diamine/K2CO3, dioxane, 22.0 mM, 100.0 °C, 16.0 h) came to 38.4%. With `CCOC(=O)C[C@@H]1NC(=O)C(n2cc(CCN3CC(F)C3)c(C(F)(F)F)cc2=O)c2cc(ccc2F)Oc2cc(C3COC3)cc(C)c2-c2cc(C)c(F)c1c2` (stereo partly shown), the ring closure, isolated yield (from CCOC(=O)C[C@H](NC(=O)C(c1cc(Br)ccc1F)n1cc(CCN2CC(F)C2)c(C(F)(F)F)cc1=O)c1cc(-c2c(C)cc(C3COC3)cc2O)cc(C)c1F, ether bond, CuI/(1R,2R)-N1,N2-dimethylcyclohexane-1,2-diamine/K2CO3, 1,4-dioxane, 25.0 mM, 100.0 °C, 1.0 h) amounted to 31.8%.

Under “from CCOC(=O)C[C@H](NC(=O)C(c1cc(Br)ccc1F)n1cc(CCN2CC(F)C2)c(C(F)(F)F)cc1=O)c1cc(-c2c(C)cccc2O)cc(C2CC2)c1F, ether bond, CuI/K2CO3/(1R,2R)-N1,N2-dimethylcyclohexane-1,2-diamine, dioxane, 25.0 mM, 100.0 °C, 16.0 h”, `CCOC(=O)C[C@@H]1NC(=O)C(n2cc(CCN3CC(F)C3)c(C(F)(F)F)cc2=O)c2cc(ccc2F)Oc2cccc(C)c2-c2cc(C3CC3)c(F)c1c2` (stereo in doubt) came in with a ring closure, isolated yield of 67.3%. For the setting “from CCOC(=O)C[C@H](N)c1cc(-c2cn(CC3CC3)nc2Oc2ccc(F)c(C(C(=O)O)n3cc(CCN4CC(F)C4)c(C(F)(F)F)cc3=O)c2)cc(C)c1F, amide bond, EDCI/HOBt/DIEA, MeCN, 45.0 mM, 60.0 °C, 2.0 h”, `CCOC(=O)C[C@@H]1NC(=O)C(n2cc(CCN3CC(F)C3)c(C(F)(F)F)cc2=O)c2cc(ccc2F)Oc2nn(CC3CC3)cc2-c2cc(C)c(F)c1c2` (stereo partly shown) showed a ring closure, isolated yield of 14.6%. With `CCOC(=O)C[C@H](NC(=O)C(c1cc(Br)cc(Cl)c1F)n1cc(CCN2CC(F)C2)c(C(F)(F)F)cc1=O)c1cc(-c2c(C)cccc2O)cc(C)c1F` (stereo partly shown), the ring closure, isolated yield (the molecule shown is the open-chain precursor, ether bond, CuI/(1R,2R)-N1,N2-dimethylcyclohexane-1,2-diamine/K2CO3, dioxane, 46.7 mM, 100.0 °C) is 46.1%. Compound `CCOC(=O)C[C@@H]1NC(=O)C(n2cc(CCN3CC(F)C3)c(C(F)(F)F)cc2=O)c2cc(ccc2F)Oc2nn(C)cc2-c2cc(C)c(F)c1c2` (stereo partly shown) showed a ring closure, isolated yield (from CCOC(=O)C[C@H](N)c1cc(-c2cn(C)nc2Oc2ccc(F)c(C(C(=O)O)n3cc(CCN4CC(F)C4)c(C(F)(F)F)cc3=O)c2)cc(C)c1F, amide bond, EDCI/HOBt/DIEA, MeCN, 32.6 mM, 60.0 °C, 6.0 h) of 29.9%. Turning to `CCOC(=O)C[C@@H]1NC(=O)C(n2cc(CCN3CC(F)C3)c(C(F)(F)F)cc2=O)c2cc(ccc2F)Oc2cccc(C)c2-c2cc(F)c(F)c1c2` (stereo in doubt), for the setting “from CCOC(=O)C[C@H](NC(=O)C(c1cc(Br)ccc1F)n1cc(CCN2CC(F)C2)c(C(F)(F)F)cc1=O)c1cc(-c2c(C)cccc2O)cc(F)c1F, ether bond, CuI/K2CO3/N1,N2-dimethylcyclohexane-1,2-diamine, 1,4-dioxane, 51.7 mM, 100.0 °C, 16.0 h”, the ring closure, isolated yield turned out to be 44.4%.

For the setting “from CCOC(=O)C[C@H](NC(=O)C(c1cc(Br)ccc1F)n1cc(CCN2CC(F)C2)c(C(F)(F)F)cc1=O)c1cc(-c2c(O)cccc2C(F)(F)F)cc(C)c1F, ether bond, CuI/K2CO3/N1,N2-dimethylcyclohexane-1,2-diamine, dioxane, 16.7 mM, 100.0 °C, 16.0 h”, `CCOC(=O)C[C@@H]1NC(=O)C(n2cc(CCN3CC(F)C3)c(C(F)(F)F)cc2=O)c2cc(ccc2F)Oc2cccc(C(F)(F)F)c2-c2cc(C)c(F)c1c2` (stereo in doubt) came in with a ring closure, isolated yield of 66.7%. As for `CCOC(=O)C[C@@H]1NC(=O)C(n2cc(CCN3CC(F)C3)c(C(F)(F)F)cc2=O)c2cc(ccc2F)Oc2cc(C(C)(C)O)cc(C)c2-c2cc(C)c(F)c1c2` (stereo partly shown), the ring closure, isolated yield (from CCOC(=O)C[C@H](NC(=O)C(c1cc(Br)ccc1F)n1cc(CCN2CC(F)C2)c(C(F)(F)F)cc1=O)c1cc(-c2c(C)cc(C(C)(C)O)cc2O)cc(C)c1F, ether bond, CuI/(1R,2R)-N1,N2-dimethylcyclohexane-1,2-diamine/K2CO3, 1,4-dioxane, 40.0 mM, 100.0 °C, 16.0 h) came to 28.3%. `CCOC(=O)C[C@@H]1NC(=O)C(n2cc(CCN3CC(F)C3)c(C(F)(F)F)cc2=O)c2cc(cc(C(F)(F)F)c2)Oc2cccc(C)c2-c2cc1c(F)c(C(F)(F)F)c2` (stereo partly shown) yielded a ring closure, isolated yield (from CCOC(=O)C[C@H](NC(=O)C(c1cc(Br)cc(C(F)(F)F)c1)n1cc(CCN2CC(F)C2)c(C(F)(F)F)cc1=O)c1cc(-c2c(C)cccc2O)cc(C(F)(F)F)c1F, ether bond, CuI/(1R,2R)-N1,N2-dimethylcyclohexane-1,2-diamine/K2CO3, dioxane, 15.0 mM, 100.0 °C, 2.0 h) of 64.3%.
